Data reported in patent US20230132386A9, “GRANZYME B DIRECTED IMAGING AND THERAPY” (CytoSite Biopharma Inc., priority 2019, published 2023).

Columns and labels:
[1] = metabolic stability assay using liver microsomes; type: in vitro ADME; conditions: human liver microsomes 0.4 mg/ml, 1 μM, NRS, 37° C.
Procedure: In addition, compounds of Formula I described above are also tested in the metabolic stability assay using liver microsomes, as provided below.
Buffer pH7.4: Prepare 1 (M) KH2PO4 and 1 (M) K2HPO4. Titrate 1(M) K2HPO4 with 1 (M) KH2PO4 to obtain pH 7.40. Dilute this buffer 10 fold in Water (30 ml buffer+270 ml of water) to obtain 100 mM phosphate buffer. Adjust pH to 7.40±0.02 using 5(N) HCl or 5(N) NaOH.
NADPH Regeneration System (NRS): Prepare a solution containing 13 mM NADP, 33 mM Glucose-6-phosphate, 33 mM MgCl2 and 4 U/ml Glucose-6-phosphate dehydrogenase in buffer.
Liver Microsome (LM) suspension: Thaw LM vial on ice, then mix 1.0 ml LM (20 mg/ml) with 19 ml buffer [final LM Conc: 1 mg/ml]
LM+NRS suspension: Mix 5.0 ml NRS with 20 ml LM suspension [final LM Conc: 0.8 mg/ml]
System suitability standard: a synthesized compound having Mol wt 686.2 used as System suitability standard. Dissolve this compound in ice-cold acetonitrile to obtain concentration of 0.1 μg/ml and store at 4° C.
Sub stock (100 μM): 4 μl of 10 mM Compound Stock+398 μl Acetonitrile Working plate (2 μM): 10 μl of 100 μM Sub stock+490 μl buffer
Incubate all plastic materials including tips at 37° C. overnight.
Incubate LM suspension and NRS at 37° C. for 15 min before use.
Add 40 μl buffer to the wells of blank plate.
Add 40 μl compound (from working plate) to 0, 5, 10, 20, 30 and 60 min plates.
Initiate reaction by adding 40 μl of LM+NRS suspension in each plate.
Terminate reaction by adding 240 μl ice-cold acetonitrile containing system suitability standard at designated time points. For T=0 add 240 μl ice-cold acetonitrile containing system suitability standard before LM+NRS addition.
Centrifuge (3500 rpm, 20 min and 15° C.) the plates.
Mix 110 μl supernatant with 110 μl water and quantitate amount of Compound in the solution using LC-MS/MS.
% Remaining at t=x min=100×([LC-MS/MS peak area of analyte]t=x min)/([LC-MS/MS peak area of analyte]t=0min)
Human LM: Corning, Cat #25117
Certain compounds of this disclosure were tested in the microsomal stability assay provided above.

[2] = target: T1, Granzyme B (human lymphocytes) (Homo sapiens, UniProt P10144); test: human Granzyme B biochemical assay; conditions: Granzyme B (human lymphocytes) 5 nM, substrate Ac-IETD-AFC 200 μM, 30 mins incubation, 22° C.
T1 construct: Supplied Granzyme B (human lymphocytes) enzyme is reconstituted to 1 mg/ml (about 31.25 μM); purchased Enzo Lifesciences ALX-200-602-0010; host or cells: human lymphocytes
Description: The compounds of Formula I described above can be tested using the human Granzyme B biochemical assay provided below.
• 1. Granzyme B (human lymphocytes) Enzyme: Enzo Lifesciences, Cat #ALX-200-602-0010 • 2. Substrate (Ac-IETD-AFC): Enzo Lifesciences, Cat #ALX-260-110-M010 • 3. Standard inhibitor (Compound 20-Isomer3): Synthesized internally in TCG • 4. Dimethyl sulfoxide (DMSO): Sigma-Aldrich, Cat #41639 • 5. HEPES: Gibco, Cat #15630-080 • 6. Calcium chloride: Sigma-Aldrich, Cat #C-5080 • 7. Distilled water: Gibco, Cat #15230-162 • 8. Bovine serum albumin (BSA): Sigma-Aldrich, Cat #A3059 • 9. Black, clear bottom PDL plate (384 wells): Greiner bio-one, Cat #781946 • 10. Polypropylene plate (384 wells): Corning, Cat #3657
• 1. DMSO is added to the respective compound vial to make 10 mM Compound stock solution, which is stored at −20° C. • 2. 10 mM Compound stock solution is thawed and 1 mM DMSO stock solution is prepared by adding 45 μl of DMSO to 5 μl of 10 mM compound stock solution. • 3. 1 mM DMSO stock solution is serially diluted (3.16 fold) by adding 10 μl of 1 mM DMSO stock to 21.6 μl of DMSO and mixed well. 10 μl of the resulting solution is then added to 21.6 μl of DMSO and mixed well. This process is continued to created 11 dilution points for the assay standard inhibitor and 8 dilution points for test compounds in 384 well polypropylene plate. • 4. 2 μl of each dilution are dispensed in assay ready plate. 5. Each well is then diluted 25 fold by adding 48 μl of assay buffer to 2 μl of compound in assay ready plate to make Compound working stock.
• 1. Supplied Granzyme B (human lymphocytes) enzyme is reconstituted to 1 mg/ml (about 31.25 μM) and 1 μl aliquots are kept in −80° C. • 2. 1 μl aliquot is diluted to 625 nM by adding 49 μl of assay buffer containing 0.1% BSA and gently mixed. • 3. 10 nM enzyme working stock is prepared by adding assay buffer containing 0.1% BSA.
• 1. Supplied substrate (Ac-IETD-AFC) is reconstituted by adding DMSO to make 10 mM stock, aliquoted and stored in −80° C. • 2. 4 mM substrate mid stock is prepared by adding DMSO. • 3. Substrate working stock i.e. 800 μM is prepared by adding assay buffer.
• 1. 10 μl of serially diluted Compound working stock (start dose 40 μM) is added from assay ready plate to assay plate according to the plate map. • 2. Positive control (40 μM of standard inhibitor) and negative control (4% DMSO buffer) are added to the respective wells. • 3. 20 μl of Enzyme working stock is added to assay plate and gently mixed. • 4. The plate is incubated at 22° C. for 30 mins and spun at 130 g for 1 minute. • 5. After incubation, 10 μl of Substrate working stock is added to respective wells and mixed (Assay plate is maintained in dark after substrate addition). • 6. The plate is incubated at 22° C. for 60 mins and spun at 130 g for 1 minute. • 7. Fluorescence read (RFU) (Ex: 400 nm/Em: 505 nm) is taken after 60 mins in EnVision Multimode plate reader.
• 1. The RFU read is analyzed to calculate percent inhibition by normalizing with positive and negative controls taken as 100% and 0% effect respectively in Microsoft excel. • 2. Graph is generated by putting the analyzed data in GraphPad prism 5.0 software to get IC50 value for each compound.

T1 sequence (P10144 21-247): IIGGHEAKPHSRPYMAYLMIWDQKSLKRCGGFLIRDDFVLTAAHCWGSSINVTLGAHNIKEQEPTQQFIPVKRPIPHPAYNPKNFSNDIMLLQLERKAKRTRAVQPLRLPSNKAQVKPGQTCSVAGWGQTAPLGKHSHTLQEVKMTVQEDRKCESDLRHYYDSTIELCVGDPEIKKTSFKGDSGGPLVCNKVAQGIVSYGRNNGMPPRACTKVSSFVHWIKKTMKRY

Molecule	Human Liver Microsomes % remaining @30 min [1] [%]	IC50 [2] [nM]
CC[C@H](C)[C@@H](C(=O)N[C@H]1CCc2cccc3c2N(C1=O)[C@H](C(=O)NCc1c[nH]nn1)C3)N(CCC(=O)O)C(=O)COCCF (single isomer, unassigned) [Compound C230]	98.2	301 to 1000
CC[C@H](C)[C@@H](C(=O)N[C@H]1CCc2cccc3c2N(C1=O)[C@H](C(=O)NCc1c[nH]nn1)C3)N(CCOCCCF)C(=O)Cc1nc2ccccc2o1 (single isomer, unassigned) [Compound C179]	–	301 to 1000
CC[C@H](C)[C@@H](C(=O)N[C@H]1CCc2cccc3c2N(C1=O)[C@H](C(=O)NCc1c[nH]nn1)C3)N(C)C(=O)CC(=O)O (single isomer, unassigned) [Compound C190]	–	301 to 1000
CC[C@H](C)[C@@H](C(=O)N[C@H]1CCc2cccc3c2N(C1=O)[C@H](C(=O)NCc1c[nH]nn1)C3)N(CCOCCF)C(C)=O (single isomer, unassigned) [Compound C203]	–	301 to 1000
CC[C@H](C)[C@@H](C(=O)N[C@H]1CCc2cccc3c2N(C1=O)[C@H](C(=O)NCc1c[nH]nn1)C3)N(C)C(=O)COCCF (single isomer, unassigned) [Compound C155]	66.3	301 to 1000
CC[C@H](C)[C@@H](C(=O)N[C@H]1CCc2cccc3c2N(C1=O)[C@H](C(=O)NCc1c[nH]nn1)C3)N(C)C(=O)Cn1ccnc1 (single isomer, unassigned) [Compound C198]	55.4	301 to 1000
CC[C@H](C)[C@@H](C(=O)N[C@H]1CCc2cccc3c2N(C1=O)[C@H](C(=O)NCc1c[nH]nn1)C3)N(CC)C(=O)COCCF (single isomer, unassigned) [Compound C176]	–	301 to 1000
CC[C@H](C)[C@@H](C(=O)N[C@H]1CCc2cccc3c2N(C1=O)[C@H](C(=O)NCc1c[nH]nn1)C3)N(C(=O)COCCF)C(C)C (single isomer, unassigned) [Compound C177]	–	1000 to 5000
CC[C@H](C)[C@@H](C(=O)N[C@H]1CCc2cccc3c2N(C1=O)[C@H](C(=O)NCc1c[nH]nn1)C3)N(C)C(=O)CC(N)=O (single isomer, unassigned) [Compound C191]	83.6	301 to 1000
CC[C@H](C)[C@@H](C(=O)N[C@H]1CCc2cccc3c2N(C1=O)[C@H](C(=O)NCc1c[nH]nn1)C3)N(C)C(=O)Cc1csc2ccccc12 (single isomer, unassigned) [Compound C152]	–	301 to 1000
N-Methyl-N-((1S,2S)-2-methyl-1- {(1S,8S)-9-oxo-1-[(1H-[1,2,3]triazol- 4-y lmethyl)-carbamoyl]-1,2,8,9- tetrahydro-7H-6-oxa-9a-aza- benzo[cd]azu1en-8-ylcarbamoyl}- butyl)-malonamic acid [Compound C214]	100.0	301 to 1000
CC[C@H](C)[C@@H](C(=O)N[C@H]1CCc2cccc3c2N(C1=O)[C@H](C(=O)NCc1c[nH]nn1)C3)N(CCOCCF)C(=O)Cc1nc2ccccc2o1 (single isomer, unassigned) [Compound C178]	0.8	301 to 1000
CC[C@H](C)[C@@H](C(=O)N[C@H]1CCc2cccc3c2N(C1=O)[C@H](C(=O)NCc1c[nH]nn1)C3)N(C)C(=O)CC(=O)NC (single isomer, unassigned) [Compound C192]	72.8	301 to 1000
CC[C@H](C)[C@@H](C(=O)N[C@H]1CCc2cccc3c2N(C1=O)[C@H](C(=O)NCc1c[nH]nn1)C3)N(C)C(=O)Cc1c[nH]cn1 (single isomer, unassigned) [Compound C197]	–	301 to 1000
CC[C@H](C)[C@@H](C(=O)N[C@H]1CCc2cccc3c2N(C1=O)[C@H](C(=O)NCc1c[nH]nn1)C3)N(C)C(=O)CC(=O)N(C)C (single isomer, unassigned) [Compound C193]	–	301 to 1000
CC[C@H](C)[C@@H](C(=O)N[C@H]1CCc2cccc3c2N(C1=O)[C@H](C(=O)NCc1c[nH]nn1)C3)N(CCc1csc2ccccc12)C(C)=O (single isomer, unassigned) [Compound C184]	–	> 5000
CC[C@H](C)[C@@H](C(=O)N[C@H]1CCc2cccc3c2N(C1=O)[C@H](C(=O)NCc1c[nH]nn1)C3)N(C)C(=O)CC(=O)OC (single isomer, unassigned) [Compound C194]	–	301 to 1000
